Assay results as given in US20100152434A1, “Protein Kinase-binding Nucleosides and Associated Methods” (priority 2007, published 2010).

Columns and labels:
BTK = BTK (Homo sapiens, UniProt Q06187); test: SignalChem radioisotope protein kinase assay; assay type: biochemical; parameters: host or cells: T7 phage in an E. coli BL21-derived host; conditions: 5 μl of 100 μM stock solution in 25 μl
From the text: The various protein kinase targets to be employed in the kinase profiling assay were cloned, expressed and purified in-house at SignalChem (Richmond, BC, Canada) using proprietary methods. Quality control testing is routinely performed on each of the SignalChem targets to ensure compliance to acceptable standards. Protein substrates employed in the target profiling process were synthesized internally. ^33P-ATP was purchased from PerkinElmer. All other materials were of standard grade. Compound 10 (FIG. 4) was supplied to SignalChem in a powder form. It was reconstituted in DMSO to form a stock solution which was then diluted with 10% DMSO to form a working stock solution (100 μM) that was then profiled against the various protein kinase targets. The assay conditions for the various protein kinase targets were optimized to yield acceptable enzymatic activity. In addition, the assays were optimized to give high signal-to-noise ratio. […]
The assay was initiated by the addition of ^33P-ATP and the reaction mixture incubated at ambient temperature for 20-40 minutes, depending on the protein kinase target. […] The radioactivity on the P81 plate was counted in the presence of scintillation fluid in a Trilux scintillation counter. […] The corrected activity for each protein kinase target was determined by removing the blank control value.

EGFR = EGFR (Homo sapiens, UniProt P00533); test: Ambit kinase phage display ATP-binding-site ligand binding assay; conditions: read-out: % Inhibition of binding to ATP-binding-site ligand
From the text: (§1) This assay is based on ligand-affinity/protein kinase phage display and was employed essentially as described by Fabian et. al [Nature Biotech. […] In this assay, protein kinases are cloned into T7 bacteriophage which express the kinase fusion proteins on the phage capsid. T7 kinase-tagged phage are then screened for binding to ATP-binding-site ligands that have been immobilized on a solid support. Phage are screened for binding to the anchored ligands both in the presence of test compound and in its absence (control). Elution of the bound phage by free ligand (ATP-binding site ligand that is not immobilized on a solid support) followed by determination of the phage titre provides a reliable measure of the ability of test compounds to block binding of target kinases to resin-bound ATP-binding-site ligands.
(§2) T7 kinase-tagged phage strains were grown in parallel in microtiter plates in a proprietary bacterial host derived from E. Coli strain BL21. E. Coli were grown to a log phase, infected with T7 kinase-tagged phage, and incubated while shaking at 32° C. until bacterial lysis (approx. 90 min). Lysates were centrifuged (6,000 g) and filtered (0.2 μm). […] The phage titre of the eluates was measured by quantitative PCR or by plaque assays. […]

TYK2 = TYK2 (Homo sapiens, UniProt P29597); test: as above; conditions: read-out: % Inhibition of binding to ATP-binding-site ligand
From the text: as §1, §2

CSNK2A2 = CSNK2A2 (Homo sapiens, UniProt P19784); test: as above; conditions: read-out: % Inhibition of binding to ATP-binding-site ligand
From the text: as §1, §2

IKK-α = IKK-α (Homo sapiens, UniProt O15111); test: as above; conditions: read-out: % Inhibition of binding to ATP-binding-site ligand
From the text: (§3) In this assay, protein kinases are cloned into T7 bacteriophage which express the kinase fusion proteins on the phage capsid. T7 kinase-tagged phage are then screened for binding to ATP-binding-site ligands that have been immobilized on a solid support. Phage are screened for binding to the anchored ligands both in the presence of test compound and in its absence (control). Elution of the bound phage by free ligand (ATP-binding site ligand that is not immobilized on a solid support) followed by determination of the phage titre provides a reliable measure of the ability of test compounds to block binding of target kinases to resin-bound ATP-binding-site ligands.
(§4) T7 kinase-tagged phage strains were grown in parallel in microtiter plates in a proprietary bacterial host derived from E. Coli strain BL21. E. Coli were grown to a log phase, infected with T7 kinase-tagged phage, and incubated while shaking at 32° C. until bacterial lysis (approx. 90 min). Lysates were centrifuged (6,000 g) and filtered (0.2 μm). Small molecule ATP-binding-site-specific ligands were anchored to solid supports via a two step process beginning with biotin conjugation followed by treatment of the biotin/small molecule conjugate with streptavidin-coated magnetic beads. […] The phage titre of the eluates was measured by quantitative PCR or by plaque assays. […]

CSNK1G2 = CSNK1G2 (Homo sapiens, UniProt P78368); test: as above; conditions: read-out: % Inhibition of binding to ATP-binding-site ligand
From the text: as §3, §4

ALK6 = ALK6 (Homo sapiens, UniProt O00238); test: as above; conditions: read-out: % Inhibition of binding to ATP-binding-site ligand
From the text: as §1, §2

RPS6KA2 = RPS6KA2 (Homo sapiens, UniProt Q15349); test: as above; conditions: read-out: percent inhibition of binding
From the text: as §1, §2

CLK4 = CLK4 (Homo sapiens, UniProt Q9HAZ1); test: as above; conditions: read-out: percent inhibition of binding
From the text: as §3, §4

CIT = CIT (Homo sapiens, UniProt O14578); test: as above; conditions: read-out: percent inhibition of binding
From the text: as §3, §4

ABL1(F317) = test: as above; conditions: 10 μM
From the text: as §3, §4

SNF1LK = SNF1LK (Homo sapiens, UniProt P57059); test: as above; conditions: read-out: percent inhibition of binding
From the text: as §3, §4

MLK1 = MLK1 (Homo sapiens, UniProt P80192); test: as above; conditions: read-out: percent inhibition of binding
From the text: as §3, §4

CLK3 = CLK3 (Homo sapiens, UniProt P49761); test: as above; conditions: read-out: percent inhibition of binding
From the text: as §3, §4

MINK = MINK (Homo sapiens, UniProt Q8N4C8); test: as above; conditions: read-out: percent inhibition of binding
From the text: as §1, §2

EGFR(L747-T751del,Sins) = EGFR(L747-T751del,Sins) (Homo sapiens, UniProt P00533, DEL747-750/T751S); test: as above; conditions: read-out: percent inhibition of binding
From the text: as §1, §2

BMPR2 = BMPR2 (Homo sapiens, UniProt Q13873); test: as above; conditions: read-out: percent inhibition of binding
From the text: as §1, §2

MET = MET (Homo sapiens, UniProt P08581); test: as above; conditions: read-out: percent inhibition of binding
From the text: as §1, §2

AURKB = AURKB (Homo sapiens, UniProt Q96GD4); test: as above; conditions: read-out: percent inhibition of binding
From the text: as §3, §4

MDA-MB-468 = test: NCI 60 in vitro screen (SRB), Breast Cancer; assay type: cell-based, human
Procedure: Mean ODtzero=The average of optical density measurements SRB-derived color just before exposure of cells to the test compound. Mean ODtest=The average of optical density measurement of SRB-derived color after 48 hours exposure of cells to the test compound. Mean ODctrl=The average of optical density measurements of SRB-derived color after 48 hours with no exposure of cells to the test compound.

Chain of EGFR (P00533 25-1210): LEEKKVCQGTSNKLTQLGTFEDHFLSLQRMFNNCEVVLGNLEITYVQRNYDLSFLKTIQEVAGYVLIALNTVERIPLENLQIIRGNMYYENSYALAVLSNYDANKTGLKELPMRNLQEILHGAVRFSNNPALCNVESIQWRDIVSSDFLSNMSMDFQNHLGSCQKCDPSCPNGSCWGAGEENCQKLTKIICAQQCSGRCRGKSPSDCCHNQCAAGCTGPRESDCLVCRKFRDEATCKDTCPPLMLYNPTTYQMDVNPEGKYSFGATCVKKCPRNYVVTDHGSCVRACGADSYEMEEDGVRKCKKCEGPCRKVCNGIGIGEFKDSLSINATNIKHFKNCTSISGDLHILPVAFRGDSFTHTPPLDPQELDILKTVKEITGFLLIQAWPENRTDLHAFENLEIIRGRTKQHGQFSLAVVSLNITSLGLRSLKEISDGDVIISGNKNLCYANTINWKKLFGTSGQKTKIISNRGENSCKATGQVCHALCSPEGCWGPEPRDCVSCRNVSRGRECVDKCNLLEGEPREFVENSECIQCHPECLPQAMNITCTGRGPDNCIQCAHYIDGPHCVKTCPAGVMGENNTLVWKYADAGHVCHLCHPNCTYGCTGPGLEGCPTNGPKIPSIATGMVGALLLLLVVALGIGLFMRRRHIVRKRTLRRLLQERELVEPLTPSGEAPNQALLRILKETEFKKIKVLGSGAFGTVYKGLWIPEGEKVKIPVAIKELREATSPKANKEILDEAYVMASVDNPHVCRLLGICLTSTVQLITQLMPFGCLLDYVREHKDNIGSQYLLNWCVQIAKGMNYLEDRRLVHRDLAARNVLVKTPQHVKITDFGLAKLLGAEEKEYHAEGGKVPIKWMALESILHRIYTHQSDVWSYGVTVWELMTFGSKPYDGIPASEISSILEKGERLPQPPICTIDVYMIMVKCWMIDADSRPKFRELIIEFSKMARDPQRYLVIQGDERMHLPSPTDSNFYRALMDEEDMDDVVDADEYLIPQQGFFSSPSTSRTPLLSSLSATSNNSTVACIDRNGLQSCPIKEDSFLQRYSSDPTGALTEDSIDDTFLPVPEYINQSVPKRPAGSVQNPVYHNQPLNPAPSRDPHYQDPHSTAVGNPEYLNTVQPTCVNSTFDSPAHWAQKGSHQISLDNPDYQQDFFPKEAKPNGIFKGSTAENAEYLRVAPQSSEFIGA
Chain of CLK4 (Q9HAZ1 whole entry): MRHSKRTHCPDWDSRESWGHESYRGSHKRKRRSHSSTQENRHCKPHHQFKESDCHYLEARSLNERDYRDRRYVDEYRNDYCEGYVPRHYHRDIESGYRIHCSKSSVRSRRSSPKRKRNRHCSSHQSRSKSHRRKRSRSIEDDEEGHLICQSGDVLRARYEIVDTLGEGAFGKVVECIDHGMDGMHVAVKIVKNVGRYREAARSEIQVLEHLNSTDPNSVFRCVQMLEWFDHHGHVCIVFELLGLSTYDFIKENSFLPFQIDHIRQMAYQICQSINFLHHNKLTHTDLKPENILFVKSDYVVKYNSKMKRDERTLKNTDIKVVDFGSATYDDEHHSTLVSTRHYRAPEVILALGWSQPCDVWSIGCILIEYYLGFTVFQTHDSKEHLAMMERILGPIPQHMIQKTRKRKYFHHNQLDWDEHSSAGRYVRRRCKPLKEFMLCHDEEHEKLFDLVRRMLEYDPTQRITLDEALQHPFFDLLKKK
Chain of CIT (O14578 whole entry): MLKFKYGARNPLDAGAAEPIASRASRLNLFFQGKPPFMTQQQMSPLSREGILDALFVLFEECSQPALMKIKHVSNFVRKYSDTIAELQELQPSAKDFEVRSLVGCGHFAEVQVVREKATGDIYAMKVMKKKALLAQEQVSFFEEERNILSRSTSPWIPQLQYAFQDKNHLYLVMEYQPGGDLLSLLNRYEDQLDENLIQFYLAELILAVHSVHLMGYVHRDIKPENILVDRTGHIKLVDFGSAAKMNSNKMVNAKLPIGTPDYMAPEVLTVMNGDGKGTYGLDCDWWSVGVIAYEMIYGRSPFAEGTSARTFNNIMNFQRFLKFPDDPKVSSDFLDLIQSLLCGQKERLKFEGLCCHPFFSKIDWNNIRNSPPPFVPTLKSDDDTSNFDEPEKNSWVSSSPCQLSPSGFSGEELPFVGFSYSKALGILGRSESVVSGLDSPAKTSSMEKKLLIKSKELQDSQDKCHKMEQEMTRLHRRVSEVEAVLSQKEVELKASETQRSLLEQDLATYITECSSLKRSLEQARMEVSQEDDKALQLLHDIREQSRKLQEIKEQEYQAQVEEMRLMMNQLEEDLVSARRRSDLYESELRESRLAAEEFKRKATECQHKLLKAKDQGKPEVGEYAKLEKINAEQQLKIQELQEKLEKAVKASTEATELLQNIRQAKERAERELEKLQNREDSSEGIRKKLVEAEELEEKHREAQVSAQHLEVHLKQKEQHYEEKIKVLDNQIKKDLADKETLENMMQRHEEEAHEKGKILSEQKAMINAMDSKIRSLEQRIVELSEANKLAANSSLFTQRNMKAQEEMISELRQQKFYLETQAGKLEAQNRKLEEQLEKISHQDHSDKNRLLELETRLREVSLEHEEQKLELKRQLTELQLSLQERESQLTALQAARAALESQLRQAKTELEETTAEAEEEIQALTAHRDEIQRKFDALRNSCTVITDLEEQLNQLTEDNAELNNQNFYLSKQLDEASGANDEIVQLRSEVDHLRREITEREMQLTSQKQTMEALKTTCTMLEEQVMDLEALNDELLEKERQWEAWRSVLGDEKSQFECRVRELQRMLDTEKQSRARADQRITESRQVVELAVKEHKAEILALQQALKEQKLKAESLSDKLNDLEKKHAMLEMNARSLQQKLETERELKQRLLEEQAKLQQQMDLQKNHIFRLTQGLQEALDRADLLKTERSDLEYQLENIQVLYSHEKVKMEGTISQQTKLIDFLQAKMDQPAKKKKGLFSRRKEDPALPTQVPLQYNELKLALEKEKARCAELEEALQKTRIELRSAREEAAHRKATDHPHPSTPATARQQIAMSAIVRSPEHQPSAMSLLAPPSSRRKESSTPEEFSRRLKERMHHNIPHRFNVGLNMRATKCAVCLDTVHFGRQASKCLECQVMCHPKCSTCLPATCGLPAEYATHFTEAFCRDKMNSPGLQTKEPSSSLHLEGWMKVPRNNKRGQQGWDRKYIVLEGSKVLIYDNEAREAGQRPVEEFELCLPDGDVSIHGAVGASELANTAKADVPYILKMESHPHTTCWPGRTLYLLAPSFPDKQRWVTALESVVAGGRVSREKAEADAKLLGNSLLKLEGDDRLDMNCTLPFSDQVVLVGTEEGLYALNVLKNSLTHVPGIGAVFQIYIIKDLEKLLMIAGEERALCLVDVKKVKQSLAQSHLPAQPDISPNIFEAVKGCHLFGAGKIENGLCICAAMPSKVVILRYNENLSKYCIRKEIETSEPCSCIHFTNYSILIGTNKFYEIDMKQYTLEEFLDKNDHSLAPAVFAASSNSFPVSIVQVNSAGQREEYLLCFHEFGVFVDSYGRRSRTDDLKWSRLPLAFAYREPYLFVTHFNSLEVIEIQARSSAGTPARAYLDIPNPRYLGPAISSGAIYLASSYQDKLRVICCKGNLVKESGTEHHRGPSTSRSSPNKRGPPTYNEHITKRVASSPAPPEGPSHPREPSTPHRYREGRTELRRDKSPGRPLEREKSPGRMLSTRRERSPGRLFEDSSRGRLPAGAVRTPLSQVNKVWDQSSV
Chain of CSNK2A2 (P19784 whole entry): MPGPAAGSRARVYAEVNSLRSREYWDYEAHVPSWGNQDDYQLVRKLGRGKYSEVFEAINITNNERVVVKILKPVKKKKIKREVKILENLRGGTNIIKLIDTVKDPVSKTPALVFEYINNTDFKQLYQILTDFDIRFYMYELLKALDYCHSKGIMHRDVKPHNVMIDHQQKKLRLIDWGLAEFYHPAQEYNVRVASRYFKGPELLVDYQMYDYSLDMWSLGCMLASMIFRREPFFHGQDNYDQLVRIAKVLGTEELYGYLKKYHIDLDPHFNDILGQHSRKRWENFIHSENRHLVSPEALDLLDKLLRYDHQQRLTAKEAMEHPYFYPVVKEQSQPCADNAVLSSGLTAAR
Chain of RPS6KA2 (Q15349 whole entry): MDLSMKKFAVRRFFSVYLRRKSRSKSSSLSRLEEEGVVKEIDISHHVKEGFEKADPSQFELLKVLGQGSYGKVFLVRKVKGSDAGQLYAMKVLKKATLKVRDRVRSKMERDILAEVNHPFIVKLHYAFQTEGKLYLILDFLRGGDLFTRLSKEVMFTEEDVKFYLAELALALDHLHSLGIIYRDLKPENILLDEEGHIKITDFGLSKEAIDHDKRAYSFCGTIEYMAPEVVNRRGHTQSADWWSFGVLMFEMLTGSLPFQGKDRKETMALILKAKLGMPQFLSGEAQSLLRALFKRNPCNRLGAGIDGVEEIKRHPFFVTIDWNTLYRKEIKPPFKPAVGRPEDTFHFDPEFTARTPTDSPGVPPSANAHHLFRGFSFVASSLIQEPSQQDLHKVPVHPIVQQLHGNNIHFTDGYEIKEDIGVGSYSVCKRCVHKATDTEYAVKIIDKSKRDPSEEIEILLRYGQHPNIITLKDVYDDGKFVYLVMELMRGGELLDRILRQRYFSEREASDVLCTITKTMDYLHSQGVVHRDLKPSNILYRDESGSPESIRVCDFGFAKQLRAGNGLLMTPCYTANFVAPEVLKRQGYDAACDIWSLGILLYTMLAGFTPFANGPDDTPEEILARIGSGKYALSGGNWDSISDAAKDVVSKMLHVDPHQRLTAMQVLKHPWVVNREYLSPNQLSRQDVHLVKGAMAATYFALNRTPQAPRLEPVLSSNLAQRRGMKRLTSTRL

For `CCOC(=O)C[C@@H]1C(O[Si](C)(C)C(C)(C)C)[C@H](n2cnc3c(NC(=O)Nc4ccccc4)ncnc32)O[C@@H]1CNC(=O)NC` (stereo partly drawn) [Compound 10], the “% Activity Change” value (BTK) was 10%, the inhibition at 10 µM (EGFR) was 30% and the inhibition at 10 µM (TYK2) was 31%. The inhibition at 10 µM (CSNK2A2) was 31%, the inhibition at 10 µM (IKK-α) was 37% and the inhibition at 10 µM (CSNK1G2) was 38%. It also gave an inhibition at 10 µM (ALK6) of 47%, an inhibition at 10 µM (RPS6KA2) of 20 to 29% and an inhibition at 10 µM (CLK4) of 20 to 29%. The inhibition at 10 µM (CIT) was 20 to 29%, the “percent inhibition of binding” value (ABL1(F317)) was 20-29% and the inhibition at 10 µM (SNF1LK) was 20 to 29%. It also gave an inhibition at 10 µM (MLK1) of 20 to 29%, an inhibition at 10 µM (CLK3) of 20 to 29% and an inhibition at 10 µM (MINK) of 20 to 29%. The inhibition at 10 µM (EGFR(L747-T751del,Sins)) was 20 to 29%, the inhibition at 10 µM (BMPR2) was 20 to 29% and the inhibition at 10 µM (MET) was 20 to 29%. It also gave an inhibition at 10 µM (AURKB) of 20 to 29%.
With `CNC(=O)NC[C@H]1O[C@@H](n2cnc3c(NC(=O)Nc4ccccc4)ncnc32)C(O[Si](C)(C)C(C)(C)C)[C@H]1O[Si](C)(C)C(C)(C)C` (stereo partly drawn) [Compound 25, 2′,3′-Bis-O-(tert-butyldimethylsilyl)-5-deoxy-5′-[(N-methylcarbamoyl)amino]-N^6-(N-phenylcarbamoyl)adenosine] the TGI (MDA-MB-468) was 1.39E−5 Molar, the GI50 (MDA-MB-468; Homo sapiens) was 3.35 µM and the IC50 (MDA-MB-468; Homo sapiens) was greater than 100 µM. For the same compound, the “Percent Growth” value (MDA-MB-468; Log10 Concentration −4.0 Molar) was −35%, the “Percent Growth” value (MDA-MB-468; Log10 Concentration −5.0 Molar) was 5% and the “Percent Growth” value (MDA-MB-468; Log10 Concentration −6.0 Molar) was 99%. For the same compound, the “Percent Growth” value (MDA-MB-468; Log10 Concentration −7.0 Molar) was 104% and the “Percent Growth” value (MDA-MB-468; Log10 Concentration −8.0 Molar) was 101%.
